According to PMC8125976, “The Total Solubility of the Co-Solubilized PAHs with Similar Structures Indicated by NMR Chemical Shift” (Molecules, 2021):
≈ marks a conversion by molar mass, not a printed value.

Assays:
[1] = Solubilization of PAHs in Tween 80 micellar solutions (1H-NMR quantification, MSR); conditions: for MSR (molar solubilization ratio): Tween 80 10-50 mM in D2O, 25 °C; for Synergistic/inhibitory level (RΔMSR), in words: Tween 80
Text: (§1) Molar solubilization ratio (MSR) is used to evaluate the solubilization potential of a surfactant, which is the molar concentration of the solubilized compound per mole of the surfactant concentration when the surfactant concentration is above CMC [37, 38], expressed by: (1) MSR=S−SCMC/C−CMC where S is the apparent solubility of a solute at the surfactant concentration of C, SCMC is the apparent solubility of the solute at CMC. Usually, the slope of the solubility with respect to the surfactant concentration can be considered to be MSR.
(§2) To compare the mutual effects of solutes in co-solubilization systems, the deviation ratio of MSR (RΔMSR) can be used to evaluate the effects of synergistic (RΔMSR > 0) or inhibitory (RΔMSR < 0), which can be expressed by: (2) RΔMSR%=MSRmixture−MSRsingle/MSRsingle×100% where MSRmixture and MSRsingle are the MSR values of solutes in the binary or ternary co-solubilization system and in the single solubilization system, respectively.
(§3) All reagents were used directly without further purification. First, a series of Tween 80 pure solutions at concentrations of 10, 20, 30, 40 and 50 mM and SDS pure solutions at concentrations of 40, 60, 80, 100 and 120 mM were prepared in D2O, respectively. These concentrations were set higher than their CMCs. The solubilization experiment was processed as follows: first, 8 equal 800 μL surfactant solutions at a certain surfactant concentration were injected into eight of 1.5 mL centrifuge cuitubes, respectively. One of them without the addition of PAHs was used as the blank control. […] Next, the surfactant solutions with PAHs solubilized were equilibrated on a reciprocating water bath oscillator at 200 rpm at 25 °C for 48 h. After equilibration, the above solutions were centrifuged at 10,000 rpm for 10 min. Finally, each of 600 μL of supernatant was transferred into 5 mm NMR tubes for further detection.
All NMR experiments were performed at 25 °C using a 500 MHz Agilent ProPulse NMR spectrometer (Agilent Technologies, Santa Clara, CA, USA) equipped with a 5 mm XYZ indirect detection probe and z-direction gradient coils with a maximum nominal gradient strength of 60 G cm^−1. The pulse excitation angle of 30 ° and the relaxation delay time of 5 s in ^1H-NMR experiments were chosen to assure the complete recovery of the magnetization and the accurate quantification. The Sodium Trimethylsilylpropionate (TSP) aqueous solution in the capillary was used as an external reference for the frequency and concentration calibration. […] Based on the resonance integral area of PAHs relative to that of TSP, we calculated their actual apparent concentrations. A total of 16 accumulations were used in 2D NOESY experiments, 1 s was chosen as mixing time. […] Due to the high growth rate of rotating frame overhauser effect (ROE) than that of NOE, ROESY experiments for Tween 80 systems were conducted instead of NOESY to avoid the possible spin diffusion effect in NOESY with the long mixing time. The parameters of the 2D ROESY experiments were the same as the NOESY experiments except that the mixing time was 0.2 s. MestReNova software (version 14.0.0, Mestrelab Research, Santiago de Compostella, Spain) was used to process all NMR data.

[2] = Solubilization of PAHs in SDS micellar solutions (1H-NMR quantification, MSR); conditions: for MSR (molar solubilization ratio): SDS 40-120 mM in D2O, 25 °C; for Synergistic/inhibitory level (RΔMSR), in words / solubility increase (RΔMSR) compared to single system: SDS
Text: as §1, §2, §3
All NMR experiments were performed at 25 °C using a 500 MHz Agilent ProPulse NMR spectrometer (Agilent Technologies, Santa Clara, CA, USA) equipped with a 5 mm XYZ indirect detection probe and z-direction gradient coils with a maximum nominal gradient strength of 60 G cm^−1. The pulse excitation angle of 30 ° and the relaxation delay time of 5 s in ^1H-NMR experiments were chosen to assure the complete recovery of the magnetization and the accurate quantification. The Sodium Trimethylsilylpropionate (TSP) aqueous solution in the capillary was used as an external reference for the frequency and concentration calibration. […] Based on the resonance integral area of PAHs relative to that of TSP, we calculated their actual apparent concentrations. A total of 16 accumulations were used in 2D NOESY experiments, 1 s was chosen as mixing time.

[3] = water; cited from earlier work
[4] = binary Ant-Pyr system vs single
[5] = binary Phe-Ant system vs single
[6] = ternary Phe-Ant-Pyr system vs single
[7] = binary Phe-Pyr system vs single

Compound | MSR (molar solubilization ratio) ([1]; binary Phe-Ant system) | MSR (molar solubilization ratio) ([1]; single solubilization system) | MSR (molar solubilization ratio) ([1]; ternary Phe-Ant-Pyr system) | Synergistic/inhibitory level (RΔMSR), in words [1, 5] | Synergistic/inhibitory level (RΔMSR), in words [1, 6] | MSR (molar solubilization ratio) ([2]; binary Phe-Ant system) | MSR (molar solubilization ratio) ([2]; single solubilization system) | MSR (molar solubilization ratio) ([2]; ternary Phe-Ant-Pyr system) | Synergistic/inhibitory level (RΔMSR), in words [2, 5] | Synergistic/inhibitory level (RΔMSR), in words [2, 6] | also measured
c1ccc2cc3ccccc3cc2c1 [Ant, anthracene] | 0.0084 | 0.0094 | 0.0080 | slight inhibition | slight inhibition | 0.0011 | 0.0011 | 0.0013 | neither Phe nor Pyr contributes to the solubility increase | slight synergism | MSR (molar solubilization ratio) ([1]; binary Ant-Pyr system): 0.0081; Synergistic/inhibitory level (RΔMSR), in words [1, 4]: slight inhibition; MSR (molar solubilization ratio) ([2]; binary Ant-Pyr system): 0.0011; Synergistic/inhibitory level (RΔMSR), in words [2, 4]: neither Phe nor Pyr contributes to the solubility increase
c1ccc2c(c1)ccc1ccccc12 [Phe, phenanthrene] | 0.0894 | 0.1170 | 0.0694 | inhibition | inhibition | 0.0095 | 0.0089 | 0.0166 | synergism | synergism | aqueous solubility [3]: 5.55 µM (≈ 0.989 µg/mL); MSR (molar solubilization ratio) ([1]; binary Phe-Pyr system): 0.1216; Synergistic/inhibitory level (RΔMSR), in words [1, 7]: synergism; MSR (molar solubilization ratio) ([2]; binary Phe-Pyr system): 0.0157; solubility increase (RΔMSR) compared to single system ([2]; binary Phe-Pyr system): 76.4%; Synergistic/inhibitory level (RΔMSR), in words [2, 7]: synergism; solubility increase (RΔMSR) compared to single system ([2]; ternary Phe-Ant-Pyr system): 86.5%
